From paper PMC6576746, “Rational discovery of dual-indication multi-target PDE/Kinase inhibitor for precision anti-cancer therapy using structural systems pharmacology” (PLoS Computational Biology, 2019)

Legend:
Assay in all cases: cells
Design in all cases: species or system panel of human cancer cell lines; Eurofins OncoPanel proliferation; nuclei count by high-content fluorescence imaging, 10-point dose response
639-V = conditions: Homo sapiens, 639-V, 72 h, cell count, 3 days
How it was run: (§1)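 Ten half-log concentrations from 100 μM (0.1% DMSO max) applied one day post-seeding, 3-day exposure at 37°C; untreated time-zero plate for GI50. Readout is nuclear cell count by automated fluorescence imaging, giving EC50, IC50, GI50 and 0–10 activity area.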

A-253 = conditions: Homo sapiens, A253, 72 h, cell count, 3 days
How it was run: as §1

A498 = conditions: Homo sapiens, A498, 72 h, cell count, 3 days
How it was run: as §1

DLD-1 = conditions: Homo sapiens, DLD-1, 72 h, cell count, 3 days
How it was run: as §1

DMS114 = conditions: Homo sapiens, DMS-114, 72 h, cell count, 3 days
How it was run: as §1

H9 = conditions: Homo sapiens, H9, 72 h, cell count, 3 days
How it was run: as §1

HT-1080 = conditions: Homo sapiens, HT-1080, 72 h, cell count, 3 days
How it was run: as §1

IM-9 = conditions: Homo sapiens, IM-9, 72 h, cell count, 3 days
How it was run: as §1

J82 = conditions: Homo sapiens, J82, 72 h, cell count, 3 days
How it was run: as §1

Jiyoye = conditions: Homo sapiens, JIYOYE, 72 h, cell count, 3 days
How it was run: as §1

OE21 = conditions: OE21, 72 h, cell count, 3 days
How it was run: as §1

SW684 = conditions: Homo sapiens, SW684, 72 h, cell count, 3 days
How it was run: as §1

SW872 = conditions: Homo sapiens, SW872, 72 h, cell count, 3 days
How it was run: as §1

UM-UC-3 = conditions: Homo sapiens, UMUC3, 72 h, cell count, 3 days
How it was run: as §1

[1] = 50% of maximum possible response

SMILES: C[C@@H]1CC(=O)NN=C1c1ccc(NN=C(C#N)C#N)cc1 [levosimendan]
- IC50 (639-V; [1]): 6.97 µM
- GI50 (639-V; corrected for time zero): 6.51 µM
- EC50 (639-V; curve inflection point): 5.59 µM
- IC50 (A-253; [1]): 62.4 µM
- GI50 (A-253; corrected for time zero): 41.7 µM
- EC50 (A-253; curve inflection point): 62.4 µM
- IC50 (A498; [1]): 81.2 µM
- GI50 (A498; corrected for time zero): 60.8 µM
- EC50 (A498; curve inflection point): 81.2 µM
- IC50 (DLD-1; [1]): 25.1 µM
- GI50 (DLD-1; corrected for time zero): 23.7 µM
- EC50 (DLD-1; curve inflection point): 23.9 µM
- IC50 (DMS114; [1]): 50.7 µM
- GI50 (DMS114; corrected for time zero): 18.9 µM
- EC50 (DMS114; curve inflection point): 50.7 µM
- IC50 (H9; [1]): 5.4 µM
- GI50 (H9; corrected for time zero): 4.31 µM
- EC50 (H9; curve inflection point): 4.92 µM
- IC50 (HT-1080; [1]): 11.7 µM
- GI50 (HT-1080; corrected for time zero): 10.9 µM
- EC50 (HT-1080; curve inflection point): 11.7 µM
- IC50 (IM-9; [1]): 41 µM
- GI50 (IM-9; corrected for time zero): 35.5 µM
- EC50 (IM-9; curve inflection point): 41 µM
- IC50 (J82; [1]): > 100 µM
- GI50 (J82; corrected for time zero): > 100 µM
- EC50 (J82; curve inflection point): > 100 µM
- IC50 (Jiyoye; [1]): 62.5 µM
- GI50 (Jiyoye; corrected for time zero): 54.6 µM
- EC50 (Jiyoye; curve inflection point): 62.5 µM
- IC50 (OE21; [1]): 85.5 µM
- GI50 (OE21; corrected for time zero): 76 µM
- EC50 (OE21; curve inflection point): 85.5 µM
- IC50 (SW684; [1]): > 100 µM
- GI50 (SW684; corrected for time zero): 17.1 µM
- EC50 (SW684; curve inflection point): 21.1 µM
- IC50 (SW872; [1]): 35.3 µM
- GI50 (SW872; corrected for time zero): 28.9 µM
- EC50 (SW872; curve inflection point): 35.3 µM
- IC50 (UM-UC-3; [1]): 48.5 µM
- GI50 (UM-UC-3; corrected for time zero): 46 µM
- EC50 (UM-UC-3; curve inflection point): 48.5 µM
